Reference: paper PMC5077133, “Towards Development of Small Molecule Lipid II Inhibitors as Novel Antibiotics” (PLoS ONE, 2016)
Values joined by “and” are separate entries in the source; they are usually repeats but may differ in a detail not shown here. Identical values can stand only once.

Legend:
[1] = test system: K. pneumoniae NR-15411 (KPC); assay: Antibacterial activity (MIC, broth dilution); format: cell-based; details: CLSI
Experimental: (§1) Determination of the Minimal Inhibitory Concentrations (MIC) by dilution was carried out by broth dilution according to CLSI standards.

S. aureus MRSA 1094 = assay: Antibacterial activity (MIC, broth dilution); format: cell-based; details: CLSI
Experimental: as §1

E. faecalis EF1509 = assay: MIC for the strain used in macromolecular synthesis assays; format: cell-based; details: Enterococcus faecalis
Experimental: as §1
(§2) The effect of compounds on the macromolecular synthetic pathways of E. faecalis EF1509 were measured as follows: Cells were grown at 35°C overnight on Tryptic Soy Agar Broth (Remel, Lenexa, KS), and growth from the plate was used to inoculate 15 ml of Mueller Hinton Broth. The culture was grown to early exponential growth phase (OD600 = 0.2 to 0.3) while incubating in a shaker at 35°C and 150 rpm. For each macromolecular assay, the test agents were added at either 0, 0.25, 0.5, 1, 2, or 4, -fold their respective MIC values for E. faecalis EF1509.

[2] = test system: cell wall synthesis in E. faecalis EF1509; assay: Macromolecular synthesis assay: cell wall synthesis; format: cell-based; details: Enterococcus faecalis; E. faecalis EF1509, [14C] N-acetyl-glucosamine incorporation; read-out: IC50 inhibition of cell wall synthesis
Experimental: The effect of compounds on the macromolecular synthetic pathways of E. faecalis EF1509 were measured as follows: Cells were grown at 35°C overnight on Tryptic Soy Agar Broth (Remel, Lenexa, KS), and growth from the plate was used to inoculate 15 ml of Mueller Hinton Broth. The culture was grown to early exponential growth phase (OD600 = 0.2 to 0.3) while incubating in a shaker at 35°C and 150 rpm. For each macromolecular assay, the test agents were added at either 0, 0.25, 0.5, 1, 2, or 4, -fold their respective MIC values for E. faecalis EF1509. […] For cell wall synthesis, bacterial cells in early exponential growth phase were transferred to M9 minimal medium and added to 1.5 ml eppendorf tubes (100 μl/tube) containing various concentrations of test compound or control antibiotics (2.5 μl) at 40X the final concentration in 100% DMSO as described above. Following a 5 min incubation at 37°C, [^14C] N-acetyl-glucosamine (0.4 μCi/reaction) was added to each tube and incubated for 45 min in a 37°C heating block. Reactions were stopped through the addition of 100 μl of 8% SDS to each tube. […] After washing three times with 5 ml of 0.1% SDS, the filters were rinsed two times with 5 ml of deionized water, allowed to dry, and then counted using a Beckman LS3801 liquid scintillation counter.

[3] = test system: DNA synthesis in E. faecalis EF1509; assay: Macromolecular synthesis assay: DNA synthesis; format: cell-based; details: Enterococcus faecalis; E. faecalis EF1509, [3H]Thymidine incorporation; read-out: IC50 inhibition of DNA synthesis
Experimental: as §2
For DNA and protein synthesis, 100 μl of cell culture reaching early exponential phase was added to triplicate wells containing various concentrations of test compound or control antibiotics (2.5 μl) at 40X the final concentration in 100% DMSO (0.1% methanol in water for Rifampicin). A 2.5% DMSO treated culture served as the “no drug” control for all experiments. Cells were added in 1.25X strength MHB to account for the volume of drug added to each reaction, or in M9 minimal medium for protein synthesis reactions. […] After washing five times with 200 μl per well of cold 5% TCA, the filters were allowed to dry, and then counted using a Packard Top Count microplate scintillation counter.

[4] = Plasma protein binding (Transil); format: in vitro ADME; details: human, TRANSIL XL PPB plates (human plasma protein beads)
Experimental: Human plasma protein binding was determined using TRANSIL^XL PPB plates (Sovicell, Leipzig, Germany). The compound 6jc48-1 (15 ul, 32% DMSO stock solution) was added to each well of a column (8 wells total) on a room temperature equilibrated plate. The plate was incubated for twelve minutes on a shaker at 1000 rpm then centrifuged for 10 minutes at 750 × g to sediment the beads from the suspension. Aliquots (100 ul) were transferred from the supernatants to 96-well plate for MS analysis. Plasma protein binding data analysis was completed by using the supplied spreadsheet from the manufacturer (Sovicell, User Guide TRANSIL PPB binding kit V2.01, 2013).

[5] = Tolerability in mice (maximum tolerated dose, clinical observations); details: C57BL/6J, mouse, in vivo, ip, 100 mg/kg, intraperitoneal, read-out: Dose safely administered intraperitoneally (preliminary maximum tolerated dose studies)
[6] = parameters: method as in PMID 25987836; details: IV, parent compound for comparison; cited from earlier work

Compound	Antibacterial activity (MIC) K. pneumoniae NR-15411 (KPC) [1]	Antibacterial activity (MIC) S. aureus MRSA 1094 (S. aureus MRSA 1094)	MIC (E. faecalis EF1509)	IC50 [2]	IC50 [3]	fraction unbound at 12 min [4]	MTD [5]	AUCInf [6]	AUClast [6]	Cl_obs [6]	Cmax [6]	T1/2 [6]	Vss_obs [6]
CN(C)c1ccc(/C=C/c2cc(-c3ccc(Br)cc3)cc(-c3ccc(Br)cc3)[o+]2)cc1 [6jc48-1]	≥ 64 µg/mL	32 µg/mL	4 µg/mL	3.8 µg/mL	8.3 µg/mL	0.11	≥ 100 mg/kg						
CN1/C(=C/C=C/c2cc(-c3ccccc3)cc(-c3ccccc3)[o+]2)C(C)(C)c2ccccc21 [BAS-00127538, (1-Methyl-2,4-diphenyl-6-((1E,3E)-3-(1,3,3-trimethylindolin-2-ylidene)prop-1-en-1-yl)pyryl-1-ium) tetrafluoroborate, reference compound]	16 µg/mL	0.5 µg/mL	2 µg/mL	1.1 µg/mL	1.8 µg/mL			27.9 ng·h/mL	26.9 ng·h/mL	711 mL/min/kg	101 ng/mL	13.2 min and 13.6 min	12.2 L/kg
